This test has as its target T1, recombinant ERO1α (Homo sapiens, UniProt Q96HE7, C104A/C131A/C166A).
T1 construct: made in house
T1 sequence (Q96HE7 22-468 C104A/C131A/C166A): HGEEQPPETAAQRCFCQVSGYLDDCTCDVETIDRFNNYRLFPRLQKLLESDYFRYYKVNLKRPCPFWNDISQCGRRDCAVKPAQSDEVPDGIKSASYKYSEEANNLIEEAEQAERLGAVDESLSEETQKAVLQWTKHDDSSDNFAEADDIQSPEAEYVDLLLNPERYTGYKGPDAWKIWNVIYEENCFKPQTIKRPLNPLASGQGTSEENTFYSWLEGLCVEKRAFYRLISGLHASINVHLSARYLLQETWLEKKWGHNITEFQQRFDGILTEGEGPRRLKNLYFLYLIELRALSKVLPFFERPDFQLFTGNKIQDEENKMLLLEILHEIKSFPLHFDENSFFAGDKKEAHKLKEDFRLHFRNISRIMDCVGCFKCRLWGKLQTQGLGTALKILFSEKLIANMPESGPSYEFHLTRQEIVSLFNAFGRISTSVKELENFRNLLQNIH
Description: Surface plasma resonance (Biacore) binding. The following applies: SPR. The protocol:
Surface plasma resonance (SPR) was utilized as an orthogonal assay to confirm direct binding between T151742 and ERO1α. For the SPR assay, recombinant ERO1α was crosslinked to a C5 chip and varying concentrations of ligand T151742 were evaluated for detection of changes in refractive index, due to change in mass on the chip when ligand is bound to the protein. […] The relatively high Kd value is in part due to the fast off-rate.
Cell Lines: PC-9 cell line used was obtained from Sigma Aldrich and grown in RPMI 1640 medium with 10% fetal bovine serum and 1% penicillin/streptomycin. HCC4006, U266, MM1.s, and Beas-2B cell lines were obtained from ATCC and cultured in either RPMI 1640 or DMEM with 10% fetal bovine serum and 1% penicillin/streptomycin. […] Plate was then read on the BioTek Cytation 5 at 530/590 nm. […] Plate was then read at 570 nm. Treated wells were all compared to DMSO control wells to calculate percent growth inhibition and the IC50 was calculated using GraphPad (log(inhibitor) vs growth inhibition). […] Images were then quantified using ImageJ. […] Cells were aliquoted at 1 million cells per PCR tube in PBS and heated in Bio-Rad T100 thermal cycler at indicated temperatures (RT, 46° C., 48° C., 50° C., 52° C., 54° C., 56°, 58° C., and 60° C.) for 3 minutes and aggregation temperature was determined by western blot analysis. […]
Background: Surface plasmon resonance follows binding to a sensor surface in real time, without labels.

Regarding `CN(C)c1ccc(/C=C2\Oc3cc(O)ccc3C2=O)cc1` [Compound T151742], the off-rate entry is on record as “fast off-rate”.

Values taken from patent US20250064773A1, “TARGETING ERO1 ALPHA WITH AURONE DERIVATIVES” (West Virginia University Board of Governors on behalf of …, priority 2021, published 2025).
